Laboratory results published in paper PMC10451668, “Natural Acetogenins, Chatenaytrienins-1, -2, -3 and -4, Mitochondrial Potential Uncouplers and Autophagy Inducers—Promising Anticancer Agents” (Antioxidants, 2023).

Columns and labels:
Type in all cases: cell-based, human
[1] = Cytotoxicity assay (7-AAD viability, flow cytometry); conditions: human; normal fibroblasts; ± standard error of the mean, 95% CI in parenthesis
Jurkat tumor cell line = assay: Assessment of cytochrome c loss (FlowCellect Cytochrome c Kit); conditions: compound at CC50, incubation 3 h, anti-cytochrome c-FITC
Method: Quantification of cytochrome c release from mitochondria in apoptotic cells was presented to detect the mitochondrial pathway of apoptosis in cells using flow cytometry with the FlowCellect™ Cytochrome c Kit (FCCH100110). For this, cells were treated with FITC-conjugated antibodies against cytochrome c and control anti-IgG1-FITC, together with the use of an optimized fixation procedure, permeabilization, and blocking buffer (Luminex®, USA). […] Jurkat cells were incubated for 4 h with the synthesized substances at a concentration corresponding to their 24-h CC50 in a culture plate and assessed using the NovoCyte Penteon Flow Cytometer System (Agilent, 5301 Stevens Creek Blvd., Santa Clara, CA, USA). The obtained data were processed using NovoExpress® software (ACEA).

Jurkat cell lysates = assay: Multiplex analysis of signaling, genotoxicity and early apoptosis proteins (MILLIPLEX MAP, Luminex)
Method: Multiplex analysis was performed according to a previously published method. MILLIPLEX®MAP technology is used to determine the total protein or phosphorylated protein levels of various biological analytes, such as kinases or signaling proteins, including CREB, ERK/MAP, p70 S6, p21, p38, PI3K/AKT/mTOR, JNK (A), p53, MDM2, Bcl-2/Bax, STAT3 and STAT5, Nf-kB, Caspase 3-8-9, JNK, ATM, Chk1, Chk2, and H2AX, in cell lysates using the Luminex® system ((MILLIPLEX Multi-Pathway Magnetic Bead 9-Plex—Cell Signaling Multiplex Assay kit, Merk, Germany). This MILLIPLEX®MAP technology provides an alternative to Western blotting and immunoprecipitation and has several important advantages, such as more accurate measurement of small amounts of protein and the elimination of analyte loss during sample preparation. The multiplex immunoassay (MILLIPLEX 48-680MAG; Merck Millipore, Germany) was performed in Millipore 96-well plates to detect changes in concentrations of phosphorylated and unphosphorylated proteins p53, MDM2, p21, p38, PI3K/AKT/mTOR, Bcl-2/Bax, STAT3 and STAT5, Nf-kB, Caspase 3 -8-9, CREB, ERK/MAP, p70 S6, JNK, ATM, Chk1, Chk2, and H2AX in Jurkat cell lysates.
The levels of phosphorylated and non-phosphorylated proteins were analyzed using MILLIPLEX® map technology to study the analytes in the same sample within a fairly short time. Various deviations in protein concentration due to external factors or detection errors that could affect the results of the experiment were thereby reduced to zero.
The expression of p53, MDM2, p21, p38, PI3K/AKT/mTOR, Bcl-2/Bax, STAT3 and STAT5, Nf-kB, Caspase 3-8-9, CREB, ERK/MAP, p70 S6, JNK, ATM, Chk1, Chk2, and H2AX proteins in lysate samples of Jurkat tumor cells were studied using Luminex technology with the MILLIPLEX® MAP 9-Plex Multi-Pathway 9-plex Magnetic Bead Kit. This bead-based assay involved color-coded fluorescent particles pre-coated with specific antibodies targeting 9 major kinases in signaling pathways.

Jurkat cells [2] = assay: Detection of mitodamage: mitochondrial membrane potential and apoptosis (MitoSense Red, annexin V, 7-AAD); conditions: compound at CC50, 4 h
Excerpt: The use of reagents MitoSense Red, annexin V, and 7-AAD in the Millipore FlowCellect™ MitoDamage Kit allowed us to gain information on early, mid, and late apoptosis with one simple assay. […] After this time, the cells were dissociated using an accutase solution, stained, and analyzed using the NovoCyte Penteon Flow Cytometer System (Agilent, 5301 Stevens Creek Blvd., Santa Clara, CA, USA), according to the manufacturer’s protocols for the FlowCellect™ MitoDamage Kit and FlowCellect™ Oxidative Stress Characterization Kit (Merck).
Detection of mitochondrial potential dissipation using MitoSense Red, annexin V, and 7-AAD provided a simultaneous measurement of three important parameters of the cell state within the same cell sample: the state of the mitochondrial potential (Δψ), detected by the membrane-penetrating MitoSense Red dye; the expression of phosphatidylserine on the cell surface of apoptotic cells, assessed by the binding of annexin V to externalized phosphatidylserine; and the binding of 7-AAD to DNA in cells in the late stages of apoptosis. Multiparametric evaluation of these indicators of cell viability made it possible to determine the correlation and relationship between oxidation dissipation and phosphorylation with apoptosis.

Jurkat cells [3] = assay: Assessment of autophagy (anti-LC3/FITC, flow cytometry); conditions: 0.5 CC50, 48 h
Excerpt: Autophagy is involved in various physiological processes and its changes are associated with the pathogenesis of diseases such as neurodegenerative diseases, cardiovascular complications, cancer, and infectious diseases, as well as with physiological processes such as innate and specific immunity, pathogen clearance, lymphocyte selection, antigen presentation, and production of immunoglobulins. Therefore, the determination of LC3 protein inside autophagosomes without the cytosolic form of LC3-I at the stage of selective cell permeability was measured using flow cytometry. Thus, using the FlowCellect™ LC3-GFP Reporter Autophagy Assay Kit (FCCH100170 and FCCH100181), flow cytometry allowed for a rapid assay that could be combined with other phenotypic and functional markers to characterize different cell populations.
Canonical autophagy is associated with the conversion of LC3 protein (an autophagosome marker) from the cytoplasmic form of LC3I to the lipid-bound form of LC3II, which is associated with the membranes of maturing autophagosomes. The autophagy process can be conveniently classified into several stages. First, induction and translocation of the cytoplasmic LC3 protein occur due to the influence of external stimuli (adverse environmental influences)—the process is initiated by external/internal stimuli (for example, nutrient depletion or hypoxia). Then, the formation of autophagosomes begins, which are double-membrane vesicles that include the LC3 protein. This protein regulates the fusion of autophagosomes and lysosomes. It exists in two fractions—cytoplasmic LC3-I and LC3-II, isolated in the autophagosomal membrane. The LC3-II protein fraction was specified in our work, as its detection is a reliable indicator of the processes of autophagy in the cell.

Structure (SMILES): CCCCCCCCCC/C=C\CC/C=C\CC/C=C\CCCCCCCCCCC1=C[C@H](C)OC1=O [compound 1, chatenaytrienin-1]
- CC50 [1]: 690 ± 40 nM
- cells with cytochrome c released into the cytoplasm (Negative gate) (Jurkat tumor cell line): 61.67%
- expression of caspase-8 (Jurkat cell lysates; 6 h and 12 h): did not significantly affect
- levels of Akt, p38, and CREB (Jurkat cell lysates; compound at CC50, 4 h): most pronouncedly suppressed
- levels of all types of kinase proteins (CREB, JNK, NFkB, p38, ERK1/2, Akt, p70S6K, STAT3, STAT5) (Jurkat cell lysates; compound at CC50, 4 h, MFI versus intact cells): most pronouncedly reduced
- cleaved caspase-9 (Jurkat cell lysates; especially after 12 h, level exceeded control): promoted the accumulation
- level of BAD protein (Jurkat cell lysates; first 6 h, within 12 h began to increase again, not reaching control): decreased
- cells in late apoptosis (stained with 7-AAD) (Jurkat cells [2]; Jurkat): 15.11%
- Jurkat tumor cells with the Δψ dissipation phenomenon (Jurkat cells [2]; MitoSense Red): 83.69%
- cells with autophagy (gate M3-2) (Jurkat cells [3]): 96.26%
